From ChEMBL document CHEMBL5356994, “Synthesis, biological and molecular modelling for 1,3,4-thiadiazole sulfonyl thioureas: bacterial and fungal activity” (RSC Med Chem, 2023)
Converted amounts (≈) assume the structure as drawn.

Legend:
[1] = tested on: Klebsiella pneumoniae; experiment: Antibacterial activity against Klebsiella pneumoniae assessed as inhibition of bacterial growth incubated for 18 to 20 hrs by microbroth dilution method; format: functional; settings: time 18-20 hrs
[2] = tested on: Saccharomyces cerevisiae; experiment: Antifungal activity against Saccharomyces cerevisiae assessed as inhibition of fungal growth incubated for 72 hrs by agar dilution method; format: functional
[3] = tested on: Salmonella typhimurium; experiment: Antibacterial activity against Salmonella typhimurium assessed as inhibition of bacterial growth incubated for 18 to 20 hrs by microbroth dilution method; format: functional, Salmonella enterica subsp. enterica serovar Typhimurium; settings: Salmonella enterica; time 18-20 hrs
[4] = tested on: Fusarium oxysporum; experiment: Antifungal activity against Fusarium oxysporum assessed as inhibition of fungal growth incubated for 72 hrs by agar dilution method; format: functional
[5] = tested on: Streptococcus pneumoniae; experiment: Antibacterial activity against Streptococcus pneumoniae assessed as inhibition of bacterial growth incubated for 18 to 20 hrs by microbroth dilution method; format: functional; settings: time 18-20 hrs
[6] = tested on: Staphylococcus epidermidis; experiment: Antibacterial activity against Staphylococcus epidermidis assessed as inhibition of bacterial growth incubated for 18 to 20 hrs by microbroth dilution method; format: functional; settings: time 18-20 hrs
[7] = tested on: Bacillus subtilis; experiment: Antibacterial activity against Bacillus subtilis assessed as inhibition of bacterial growth incubated for 18 to 20 hrs by microbroth dilution method; format: functional; settings: time 18-20 hrs
[8] = tested on: Aspergillus flavus; experiment: Antifungal activity against Aspergillus flavus assessed as inhibition of fungal growth incubated for 72 hrs by agar dilution method; format: functional
[9] = tested on: Pseudomonas aeruginosa; experiment: Antibacterial activity against Pseudomonas aeruginosa assessed as inhibition of bacterial growth incubated for 18 to 20 hrs by microbroth dilution method; format: functional; settings: time 18-20 hrs
[10] = tested on: Candida albicans; experiment: Antifungal activity against Candida albicans assessed as inhibition of fungal growth incubated for 72 hrs by agar dilution method; format: functional
[11] = tested on: Staphylococcus aureus; experiment: Antibacterial activity against Staphylococcus aureus assessed as inhibition of bacterial growth incubated for 18 to 20 hrs by microbroth dilution method; format: functional; settings: time 18-20 hrs
[12] = tested on: Aspergillus niger; experiment: Antifungal activity against Aspergillus niger assessed as inhibition of fungal growth incubated for 72 hrs by agar dilution method; format: functional
[13] = tested on: Escherichia coli; experiment: Antibacterial activity against Escherichia coli assessed as inhibition of bacterial growth incubated for 18 to 20 hrs by microbroth dilution method; format: functional; settings: time 18-20 hrs
[14] = tested on: Clostridioides difficile; experiment: Antibacterial activity against Clostridium difficile assessed as inhibition of bacterial growth incubated for 18 to 20 hrs by microbroth dilution method; format: functional; settings: time 18-20 hrs
[15] = tested on: Candida albicans; experiment: Antifungal activity against Candida albicans assessed as inhibition of fungal growth incubated for 20 hrs by macro-broth dilution method; format: functional
[16] = tested on: Escherichia coli; experiment: Antibacterial activity against Escherichia coli assessed as inhibition of bacterial growth incubated for 16 to 18 hrs by serial dilution method; format: functional; settings: time 16-18 hrs
[17] = tested on: Candida albicans; experiment: Antifungal activity against Candida albicans assessed as inhibition of fungal growth incubated for 16 to 18 hrs by serial dilution method; format: functional; settings: time 16-18 hrs
[18] = tested on: Aspergillus flavus; experiment: Antifungal activity against Aspergillus flavus assessed as inhibition of fungal growth incubated for 16 to 18 hrs by serial dilution method; format: functional; settings: time 16-18 hrs
[19] = tested on: Staphylococcus aureus; experiment: Antibacterial activity against Staphylococcus aureus assessed as inhibition of bacterial growth incubated for 16 to 18 hrs by serial dilution method; format: functional; settings: time 16-18 hrs
[20] = tested on: Phytophthora infestans; experiment: Antifungal activity against Phytophthora infestans assessed as inhibition of fungal growth incubated for 5 days by poison plate technique; format: functional, organism-based; settings: 120 h
[21] = target: DNA topoisomerase 4 subunit B (Staphylococcus aureus, UniProt P0C1S7); experiment: Inhibition of Staphylococcus aureus DNA topoisomerase 4 subunit B ATPase activity using relaxed pNO1 plasmid as substrate incubated for 30 mins by microplate reader analysis
[22] = target: Dihydrofolate reductase (Staphylococcus aureus, UniProt P0A017); experiment: Inhibition of Staphylococcus aureus dihydrofolate reductase using dihydrofolate as substrate in presence of NADPH by microplate reader analysis
[23] = target: DNA gyrase subunit B (Staphylococcus aureus, UniProt P0A0K8); experiment: Inhibition of Staphylococcus aureus DNA gyrase subunit B ATPase activity using relaxed pNO1 plasmid as substrate incubated for 30 mins by microplate reader analysis
[24] = target: Carbonic anhydrase 2 (Homo sapiens, UniProt P00918); experiment: Inhibition of human carbonic anhydrase II esterase activity using p-nitrophenol acetate as substrate and measured for 3 mins by UV/visible spectrophotometric analysis

Chain of Dihydrofolate reductase (P0A017 whole entry): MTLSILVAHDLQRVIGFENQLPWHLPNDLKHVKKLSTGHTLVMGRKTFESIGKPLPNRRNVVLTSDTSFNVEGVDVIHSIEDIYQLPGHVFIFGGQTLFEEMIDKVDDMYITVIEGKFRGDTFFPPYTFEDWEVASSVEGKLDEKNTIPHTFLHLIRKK
Chain of DNA gyrase subunit B (P0A0K8 whole entry): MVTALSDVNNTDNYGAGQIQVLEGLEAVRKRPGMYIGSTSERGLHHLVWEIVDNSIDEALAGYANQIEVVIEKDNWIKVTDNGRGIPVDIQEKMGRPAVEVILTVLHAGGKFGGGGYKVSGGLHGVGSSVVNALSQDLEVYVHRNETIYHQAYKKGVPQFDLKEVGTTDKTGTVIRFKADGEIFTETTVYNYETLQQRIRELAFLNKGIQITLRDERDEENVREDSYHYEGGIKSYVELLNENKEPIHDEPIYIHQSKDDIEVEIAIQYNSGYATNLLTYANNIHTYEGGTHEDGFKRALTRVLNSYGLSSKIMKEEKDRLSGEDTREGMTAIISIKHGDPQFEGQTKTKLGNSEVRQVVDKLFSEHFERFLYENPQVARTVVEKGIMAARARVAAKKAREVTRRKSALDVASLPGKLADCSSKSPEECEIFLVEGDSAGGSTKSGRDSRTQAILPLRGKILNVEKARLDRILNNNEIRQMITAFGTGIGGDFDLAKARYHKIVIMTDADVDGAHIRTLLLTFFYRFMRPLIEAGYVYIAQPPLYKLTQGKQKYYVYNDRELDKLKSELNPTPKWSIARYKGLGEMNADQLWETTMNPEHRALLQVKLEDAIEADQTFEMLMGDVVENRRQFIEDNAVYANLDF
Chain of DNA topoisomerase 4 subunit B (P0C1S7 whole entry): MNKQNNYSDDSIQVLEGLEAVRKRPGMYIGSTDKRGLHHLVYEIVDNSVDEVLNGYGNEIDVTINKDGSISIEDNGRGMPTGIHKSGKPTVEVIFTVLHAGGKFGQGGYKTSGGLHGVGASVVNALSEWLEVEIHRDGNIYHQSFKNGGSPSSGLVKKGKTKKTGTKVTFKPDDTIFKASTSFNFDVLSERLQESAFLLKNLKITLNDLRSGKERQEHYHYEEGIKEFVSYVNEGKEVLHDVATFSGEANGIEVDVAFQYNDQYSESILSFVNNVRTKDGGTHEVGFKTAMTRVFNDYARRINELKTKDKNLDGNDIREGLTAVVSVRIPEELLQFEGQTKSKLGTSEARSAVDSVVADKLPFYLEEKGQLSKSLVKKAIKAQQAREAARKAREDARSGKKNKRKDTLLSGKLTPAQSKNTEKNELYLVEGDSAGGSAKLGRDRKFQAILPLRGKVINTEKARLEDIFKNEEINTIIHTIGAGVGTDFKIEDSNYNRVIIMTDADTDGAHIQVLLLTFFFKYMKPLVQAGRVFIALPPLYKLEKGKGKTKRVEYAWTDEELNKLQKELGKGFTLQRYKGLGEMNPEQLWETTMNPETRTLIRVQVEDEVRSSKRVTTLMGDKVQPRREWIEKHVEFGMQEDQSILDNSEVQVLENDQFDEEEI

Row | SMILES | MIC [1] [µg/mL] | MIC [2] [µg/mL] | MIC [3] [µg/mL] | MIC [4] [µg/mL] | MIC [5] [µg/mL] | MIC [6] [µg/mL] | MIC [7] [µg/mL] | MIC [8] [µg/mL] | MIC [9] [µg/mL] | MIC [10] [µg/mL] | MIC [11] [µg/mL] | MIC [12] [µg/mL] | MIC [13] [µg/mL] | MIC [14] [µg/mL] | other results
1 | CCCCc1nnc(NC(=S)NS(=O)(=O)c2ccc(C)cc2)s1 | 400 (≈ 1080 µM) | 400 (≈ 1080 µM) | 400 (≈ 1080 µM) | 400 (≈ 1080 µM) | 400 (≈ 1080 µM) | 400 (≈ 1080 µM) | 400 (≈ 1080 µM) | 400 (≈ 1080 µM) | 400 (≈ 1080 µM) | 400 (≈ 1080 µM) | 400 (≈ 1080 µM) | 400 (≈ 1080 µM) | 400 (≈ 1080 µM) | 400 (≈ 1080 µM) | –
2 | OC(Cn1cncn1)(Cn1cncn1)c1ccc(F)cc1F [FLUCONAZOLE] | – | 0.78 (≈ 2.55 µM) | – | 0.78 (≈ 2.55 µM) | – | – | – | 0.78 (≈ 2.55 µM) | – | 0.78 (≈ 2.55 µM) | – | 1.56 (≈ 5.09 µM) | – | – | MIC [15]: 0.05 µg/mL (≈ 0.163 µM); MIC [16]: 6.25 µg/mL (≈ 20.4 µM); MIC [17]: 6.25 µg/mL (≈ 20.4 µM); MIC [18]: 6.25 µg/mL (≈ 20.4 µM); MIC [19]: 6.25 µg/mL (≈ 20.4 µM)
3 | C=CCNc1nnc(-c2ccccc2OCc2ccc(Cl)cc2)s1 | – | – | – | – | – | – | – | – | – | – | – | – | – | – | MIC [15]: 0.08 µg/mL (≈ 0.224 µM)
4 | COc1ccc(/C(=C/C(=O)N2CCOCC2)c2ccc(Cl)cc2)cc1OC | – | – | – | – | – | – | – | – | – | – | – | – | – | – | EC50 [20]: 5.53 µg/mL (≈ 14.3 µM)
5 | CCCCCc1nnc(NC(=S)NS(=O)(=O)c2ccc(C)cc2)s1 | 1.56 (≈ 4.06 µM) | 400 (≈ 1040 µM) | 100 (≈ 260 µM) | 1.56 (≈ 4.06 µM) | 200 (≈ 520 µM) | 0.78 (≈ 2.03 µM) | 200 (≈ 520 µM) | 12.5 (≈ 32.5 µM) | 0.78 (≈ 2.03 µM) | 200 (≈ 520 µM) | 0.78 (≈ 2.03 µM) | 3.12 (≈ 8.13 µM) | 0.78 (≈ 2.03 µM) | 12.5 (≈ 32.5 µM) | IC50 [21]: 53.8 µM; IC50 [22]: 0.23 µM; IC50 [23]: 1.22 µM
6 | Clc1ccc(COC(Cn2ccnc2)c2ccc(Cl)cc2Cl)c(Cl)c1 (stereo not drawn) [MICONAZOLE] | – | 3.12 (≈ 7.51 µM) | – | 3.12 (≈ 7.51 µM) | – | – | – | 1.56 (≈ 3.75 µM) | – | 3.12 (≈ 7.51 µM) | – | 1.56 (≈ 3.75 µM) | – | – | –
7 | S=C(/N=C/c1cc2cc(Cl)ccc2nc1Cl)Nc1nnc(-c2ccc(Cl)cc2)s1 | – | – | – | – | – | – | – | – | – | – | – | – | – | – | MIC [16]: 3.12 µg/mL (≈ 6.52 µM); MIC [17]: 3.12 µg/mL (≈ 6.52 µM); MIC [18]: 3.12 µg/mL (≈ 6.52 µM); MIC [19]: 3.12 µg/mL (≈ 6.52 µM)
8 | Cc1ccc(S(=O)(=O)NC(=S)Nc2nnc(C)s2)cc1 | 6.25 (≈ 19 µM) | 6.25 (≈ 19 µM) | 12.5 (≈ 38.1 µM) | 25 (≈ 76.1 µM) | 12.5 (≈ 38.1 µM) | 100 (≈ 304 µM) | 6.25 (≈ 19 µM) | 25 (≈ 76.1 µM) | 1.56 (≈ 4.75 µM) | 0.78 (≈ 2.37 µM) | 25 (≈ 76.1 µM) | 50 (≈ 152 µM) | 50 (≈ 152 µM) | 6.25 (≈ 19 µM) | –
9 | O=C(O)c1cn(C2CC2)c2cc(N3CCNCC3)c(F)cc2c1=O [CIPROFLOXACIN] | 1.56 (≈ 4.71 µM) | – | 1.56 (≈ 4.71 µM) | – | – | 3.12 (≈ 9.43 µM) | 3.12 (≈ 9.43 µM) | – | 1.56 (≈ 4.71 µM) | – | 3.12 (≈ 9.43 µM) | – | – | – | –
10 | O=S(=O)(NC(=S)Nc1ccccc1)c1ccccc1 | – | – | – | – | – | – | – | – | – | – | – | – | – | – | IC50 [24]: 422 µM
11 | CC(=O)OC[C@H]1O[C@@H](Sc2nnc(NC(=O)c3ccc(F)cc3)s2)[C@@H](OC(C)=O)[C@H](OC(C)=O)[C@@H]1OC(C)=O | – | – | – | – | – | – | – | – | – | – | – | – | – | – | EC50 [20]: 3.43 µg/mL (≈ 5.86 µM)
12 | Cc1ccc(S(=O)(=O)NC(=S)Nc2nnc(CC(C)C)s2)cc1 | 400 (≈ 1080 µM) | 3.12 (≈ 8.43 µM) | 50 (≈ 135 µM) | 1.56 (≈ 4.21 µM) | 0.78 (≈ 2.11 µM) | 12.5 (≈ 33.7 µM) | 0.78 (≈ 2.11 µM) | 0.78 (≈ 2.11 µM) | 6.25 (≈ 16.9 µM) | 3.12 (≈ 8.43 µM) | 100 (≈ 270 µM) | 50 (≈ 135 µM) | 6.25 (≈ 16.9 µM) | 3.12 (≈ 8.43 µM) | –
